Here are results for three molecules from ChEMBL document CHEMBL3792292, “Development of a potent and selective FLT3 kinase inhibitor by systematic expansion of a non-selective fragment-screening hit” (Bioorg Med Chem Lett, 2016).

Test [1] has as its target Dual specificity tyrosine-phosphorylation-regulated kinase 1B (Homo sapiens) (UniProt Q9Y463). The test is described as follows: Inhibition of full length human N-terminal GST-tagged DYRK1B (1 to 629 residues) expressed in baculovirus expression system using fluorescence labelled DYRKtide-F as substrate at 50 times IC50 by electrophoretic mobility shift assay relative to control.

Test [2] addresses Hepatocyte growth factor receptor (Homo sapiens) (UniProt P08581). The experiment in a line: Inhibition of human N-terminal GST-tagged MET cytoplasmic domain (956 to 1390 residues) expressed in baculovirus expression system using fluorescence labelled srctide as substrate at 50 times IC50 by electrophoretic mobility shift assay relative to control. For orientation: Mobility shift assays separate free from complexed probe on a gel.

For test [3], the target named is Fibroblast growth factor receptor 1 (Homo sapiens) (UniProt P11362). The test is described as follows: Inhibition of human N-terminal GST-tagged FGFR1 cytoplasmic domain (398 to 822 residues) expressed in baculovirus expression system using fluorescence labelled CSKtide as substrate at 50 times IC50 by electrophoretic mobility shift assay relative to control.
The target in test [4] is Protein kinase C alpha type (Homo sapiens) (UniProt P17252). The experiment in a line: Inhibition of full length human N-terminal GST-tagged PKCalpha (1 to 672 residues) expressed in baculovirus expression system using fluorescence labelled PKC peptide substrate at 50 times IC50 by electrophoretic mobility shift assay relative to control.
Test [5] has as its target T1, Tyrosine-protein kinase receptor TYRO3 (Homo sapiens) (UniProt Q06418).
T1 sequence (whole entry): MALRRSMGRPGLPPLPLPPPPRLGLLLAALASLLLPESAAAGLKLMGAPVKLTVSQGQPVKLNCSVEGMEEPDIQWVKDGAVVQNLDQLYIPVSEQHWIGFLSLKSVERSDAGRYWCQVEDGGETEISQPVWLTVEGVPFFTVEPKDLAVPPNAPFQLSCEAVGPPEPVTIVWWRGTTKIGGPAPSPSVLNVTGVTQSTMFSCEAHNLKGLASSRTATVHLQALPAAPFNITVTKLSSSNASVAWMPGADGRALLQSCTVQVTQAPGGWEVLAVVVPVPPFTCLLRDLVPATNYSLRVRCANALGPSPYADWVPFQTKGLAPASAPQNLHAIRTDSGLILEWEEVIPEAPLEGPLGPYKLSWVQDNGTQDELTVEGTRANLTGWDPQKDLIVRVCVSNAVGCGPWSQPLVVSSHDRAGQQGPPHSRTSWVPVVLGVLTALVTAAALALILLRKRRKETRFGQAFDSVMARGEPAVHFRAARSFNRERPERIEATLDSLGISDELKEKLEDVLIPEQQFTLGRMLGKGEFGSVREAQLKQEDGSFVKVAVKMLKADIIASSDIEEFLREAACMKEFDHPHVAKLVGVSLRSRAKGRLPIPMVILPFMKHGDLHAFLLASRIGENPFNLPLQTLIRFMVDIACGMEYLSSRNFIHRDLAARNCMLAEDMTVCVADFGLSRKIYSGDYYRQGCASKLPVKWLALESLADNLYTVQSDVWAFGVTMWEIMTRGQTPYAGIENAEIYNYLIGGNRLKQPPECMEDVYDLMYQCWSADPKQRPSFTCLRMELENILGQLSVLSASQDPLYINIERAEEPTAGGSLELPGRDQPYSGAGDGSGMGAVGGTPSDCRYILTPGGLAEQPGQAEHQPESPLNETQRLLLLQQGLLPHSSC
The test is described as follows: Inhibition of human N-terminal GST-tagged TYRO3 cytoplasmic domain (453 to 890 residues) expressed in baculovirus expression system using fluorescence labelled CSKtide as substrate at 50 times IC50 by electrophoretic mobility shift assay relative to control.

For test [6], the target named is Receptor-type tyrosine-protein kinase FLT3 (Homo sapiens) (UniProt P36888). The experiment in a line: Inhibition of human N-terminal GST-tagged FLT3 cytoplasmic domain (564 to 993 residues) expressed in baculovirus expression system using fluorescence labelled srctide as substrate at 50 times IC50 by electrophoretic mobility shift assay relative to control.
For test [7], the target named is [Pyruvate dehydrogenase (acetyl-transferring)] kinase isozyme 1, mitochondrial (Homo sapiens) (UniProt Q15118). The test is described as follows: Inhibition of full length human N-terminal GST-tagged PDK1 (1 to 436 residues) expressed in baculovirus expression system using fluorescence labelled PDHKtide as substrate at 50 times IC50 by electrophoretic mobility shift assay relative to control.

The target in test [8] is MAP kinase-activated protein kinase 2 (Homo sapiens) (UniProt P49137). The experiment in a line: Inhibition of full length human N-terminal GST-tagged MAPKAPK2 (1 to 400 residues) expressed in baculovirus expression system coexpressing human His-tagged p38beta (1 to 364 residues)/MAP2K6 (1 to 334 residues) using fluorescence labelled GS peptide substrate at 50 times IC50 by electrophoretic mobility shift assay relative to control.

Test [9] concerns the target Tyrosine-protein kinase CSK (Homo sapiens) (UniProt P41240). The experiment in a line: Inhibition of full length human N-terminal GST-tagged CSK (1 to 450 residues) expressed in baculovirus expression system using fluorescence labelled srctide as substrate at 50 times IC50 by electrophoretic mobility shift assay relative to control.
The target in test [10] is Glycogen synthase kinase-3 beta (Homo sapiens) (UniProt P49841). The experiment in a line: Inhibition of full length human N-terminal GST-tagged GSK3beta (1 to 420 residues) expressed in baculovirus expression system using fluorescence labelled CREBtide-p as substrate at 50 times IC50 by electrophoretic mobility shift assay relative to control.
The target in test [11] is Serine/threonine-protein kinase PAK 2 (Homo sapiens) (UniProt Q13177). The test is described as follows: Inhibition of full length human N-terminal GST-tagged PAK2 (1 to 524 residues) expressed in baculovirus expression system using fluorescence labelled DAPK1tide as substrate at 50 times IC50 by electrophoretic mobility shift assay relative to control.
Test [12] addresses Mitogen-activated protein kinase 14 (Homo sapiens) (UniProt Q16539). The test is described as follows: Inhibition of human N-terminal GST-tagged p38alpha (9 to 352 residues) expressed in Escherichia coli using fluorescence labelled modified Erktide as substrate at 50 times IC50 by electrophoretic mobility shift assay relative to control.

The structures appear in SMILES notation.

Fibroblast growth factor receptor 1 (Homo sapiens), sequence (P11362 22-822 limits assumed): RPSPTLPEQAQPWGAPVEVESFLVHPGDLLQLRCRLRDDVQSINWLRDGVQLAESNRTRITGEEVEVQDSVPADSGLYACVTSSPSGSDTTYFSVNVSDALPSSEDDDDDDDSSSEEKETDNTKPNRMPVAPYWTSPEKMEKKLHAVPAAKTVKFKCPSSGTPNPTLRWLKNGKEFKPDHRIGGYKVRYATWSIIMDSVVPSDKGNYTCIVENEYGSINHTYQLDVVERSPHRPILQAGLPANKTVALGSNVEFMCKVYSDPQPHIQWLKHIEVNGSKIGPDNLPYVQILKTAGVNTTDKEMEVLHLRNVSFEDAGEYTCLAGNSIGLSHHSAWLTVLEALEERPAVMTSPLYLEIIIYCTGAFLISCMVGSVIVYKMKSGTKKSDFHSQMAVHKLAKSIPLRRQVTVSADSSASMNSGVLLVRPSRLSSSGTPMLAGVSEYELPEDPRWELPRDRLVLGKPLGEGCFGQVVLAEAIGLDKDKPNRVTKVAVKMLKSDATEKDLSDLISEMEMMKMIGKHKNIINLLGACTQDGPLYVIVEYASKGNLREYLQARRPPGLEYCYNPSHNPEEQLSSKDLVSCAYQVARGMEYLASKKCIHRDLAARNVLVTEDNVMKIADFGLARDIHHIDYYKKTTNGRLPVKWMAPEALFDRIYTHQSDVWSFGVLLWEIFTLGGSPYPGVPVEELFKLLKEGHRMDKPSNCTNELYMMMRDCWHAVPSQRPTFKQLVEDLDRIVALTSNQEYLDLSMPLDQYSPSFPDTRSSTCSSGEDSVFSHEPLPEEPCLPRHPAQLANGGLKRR
Hepatocyte growth factor receptor (Homo sapiens), sequence (P08581 whole entry, the tested form may be a part): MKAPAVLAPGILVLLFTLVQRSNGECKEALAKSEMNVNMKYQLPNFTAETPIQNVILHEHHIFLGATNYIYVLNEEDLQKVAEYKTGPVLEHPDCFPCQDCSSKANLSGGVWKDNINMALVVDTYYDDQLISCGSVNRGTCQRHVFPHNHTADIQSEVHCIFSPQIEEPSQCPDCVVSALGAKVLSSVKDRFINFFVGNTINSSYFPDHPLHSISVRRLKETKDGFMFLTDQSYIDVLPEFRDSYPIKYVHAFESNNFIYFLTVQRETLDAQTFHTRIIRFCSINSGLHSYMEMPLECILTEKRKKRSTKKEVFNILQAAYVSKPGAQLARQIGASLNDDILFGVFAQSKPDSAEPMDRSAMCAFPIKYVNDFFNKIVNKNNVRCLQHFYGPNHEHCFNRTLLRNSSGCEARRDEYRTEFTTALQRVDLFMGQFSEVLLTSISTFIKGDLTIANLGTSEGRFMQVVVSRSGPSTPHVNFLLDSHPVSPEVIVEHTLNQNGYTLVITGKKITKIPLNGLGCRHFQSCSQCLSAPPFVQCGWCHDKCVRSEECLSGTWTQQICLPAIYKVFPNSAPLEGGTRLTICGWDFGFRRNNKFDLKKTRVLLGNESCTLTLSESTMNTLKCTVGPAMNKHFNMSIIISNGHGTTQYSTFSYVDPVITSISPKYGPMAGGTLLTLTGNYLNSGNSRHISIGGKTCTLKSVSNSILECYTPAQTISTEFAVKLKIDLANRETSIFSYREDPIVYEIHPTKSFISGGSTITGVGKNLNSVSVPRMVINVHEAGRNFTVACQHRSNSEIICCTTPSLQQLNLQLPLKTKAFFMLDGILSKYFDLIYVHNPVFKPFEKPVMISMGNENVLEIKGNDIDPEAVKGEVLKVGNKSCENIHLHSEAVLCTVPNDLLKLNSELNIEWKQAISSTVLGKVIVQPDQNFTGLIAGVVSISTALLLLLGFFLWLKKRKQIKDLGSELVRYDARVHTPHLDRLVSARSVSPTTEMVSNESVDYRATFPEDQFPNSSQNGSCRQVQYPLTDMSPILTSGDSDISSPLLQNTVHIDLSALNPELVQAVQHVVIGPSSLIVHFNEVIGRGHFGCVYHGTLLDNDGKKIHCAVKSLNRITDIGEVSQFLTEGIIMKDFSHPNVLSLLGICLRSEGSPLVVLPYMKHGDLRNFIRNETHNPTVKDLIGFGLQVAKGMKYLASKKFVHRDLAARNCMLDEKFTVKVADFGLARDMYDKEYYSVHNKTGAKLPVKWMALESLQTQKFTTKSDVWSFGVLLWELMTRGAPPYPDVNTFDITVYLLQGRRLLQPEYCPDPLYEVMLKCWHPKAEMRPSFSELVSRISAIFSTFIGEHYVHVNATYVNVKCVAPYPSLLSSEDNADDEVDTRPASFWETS
Dual specificity tyrosine-phosphorylation-regulated kinase 1B (Homo sapiens), sequence (Q9Y463 whole entry, looked up, the tested form may be a part): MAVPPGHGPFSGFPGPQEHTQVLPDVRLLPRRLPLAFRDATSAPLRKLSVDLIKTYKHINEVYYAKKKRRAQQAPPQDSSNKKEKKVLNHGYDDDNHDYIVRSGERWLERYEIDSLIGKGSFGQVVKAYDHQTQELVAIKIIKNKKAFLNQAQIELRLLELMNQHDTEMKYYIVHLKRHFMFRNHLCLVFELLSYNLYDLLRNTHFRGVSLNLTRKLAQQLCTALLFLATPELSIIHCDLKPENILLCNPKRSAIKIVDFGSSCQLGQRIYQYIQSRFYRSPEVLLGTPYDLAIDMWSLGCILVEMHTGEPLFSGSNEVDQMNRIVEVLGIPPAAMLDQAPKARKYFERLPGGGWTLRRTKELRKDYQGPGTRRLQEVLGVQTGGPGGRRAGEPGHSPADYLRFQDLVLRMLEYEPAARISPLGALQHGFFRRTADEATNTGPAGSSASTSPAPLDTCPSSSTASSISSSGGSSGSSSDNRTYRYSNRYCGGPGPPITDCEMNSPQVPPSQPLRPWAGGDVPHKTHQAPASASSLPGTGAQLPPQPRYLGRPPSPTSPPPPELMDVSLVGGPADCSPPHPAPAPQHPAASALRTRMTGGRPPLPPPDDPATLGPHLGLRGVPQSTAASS
Tyrosine-protein kinase CSK (Homo sapiens), sequence (P41240 2-450 limits assumed): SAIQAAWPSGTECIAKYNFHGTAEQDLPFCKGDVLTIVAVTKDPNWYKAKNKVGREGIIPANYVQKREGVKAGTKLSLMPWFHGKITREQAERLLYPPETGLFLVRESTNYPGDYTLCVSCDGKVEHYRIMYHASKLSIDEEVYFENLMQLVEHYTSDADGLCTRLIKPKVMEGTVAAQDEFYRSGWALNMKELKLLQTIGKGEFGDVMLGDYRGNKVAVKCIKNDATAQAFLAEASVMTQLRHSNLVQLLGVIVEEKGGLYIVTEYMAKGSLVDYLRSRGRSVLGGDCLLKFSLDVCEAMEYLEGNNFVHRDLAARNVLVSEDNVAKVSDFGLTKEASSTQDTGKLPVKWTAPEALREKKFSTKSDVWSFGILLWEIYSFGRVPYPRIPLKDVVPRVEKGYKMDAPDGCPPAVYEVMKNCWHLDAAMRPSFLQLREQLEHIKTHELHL
Receptor-type tyrosine-protein kinase FLT3 (Homo sapiens), sequence (P36888 whole entry, the tested form may be a part): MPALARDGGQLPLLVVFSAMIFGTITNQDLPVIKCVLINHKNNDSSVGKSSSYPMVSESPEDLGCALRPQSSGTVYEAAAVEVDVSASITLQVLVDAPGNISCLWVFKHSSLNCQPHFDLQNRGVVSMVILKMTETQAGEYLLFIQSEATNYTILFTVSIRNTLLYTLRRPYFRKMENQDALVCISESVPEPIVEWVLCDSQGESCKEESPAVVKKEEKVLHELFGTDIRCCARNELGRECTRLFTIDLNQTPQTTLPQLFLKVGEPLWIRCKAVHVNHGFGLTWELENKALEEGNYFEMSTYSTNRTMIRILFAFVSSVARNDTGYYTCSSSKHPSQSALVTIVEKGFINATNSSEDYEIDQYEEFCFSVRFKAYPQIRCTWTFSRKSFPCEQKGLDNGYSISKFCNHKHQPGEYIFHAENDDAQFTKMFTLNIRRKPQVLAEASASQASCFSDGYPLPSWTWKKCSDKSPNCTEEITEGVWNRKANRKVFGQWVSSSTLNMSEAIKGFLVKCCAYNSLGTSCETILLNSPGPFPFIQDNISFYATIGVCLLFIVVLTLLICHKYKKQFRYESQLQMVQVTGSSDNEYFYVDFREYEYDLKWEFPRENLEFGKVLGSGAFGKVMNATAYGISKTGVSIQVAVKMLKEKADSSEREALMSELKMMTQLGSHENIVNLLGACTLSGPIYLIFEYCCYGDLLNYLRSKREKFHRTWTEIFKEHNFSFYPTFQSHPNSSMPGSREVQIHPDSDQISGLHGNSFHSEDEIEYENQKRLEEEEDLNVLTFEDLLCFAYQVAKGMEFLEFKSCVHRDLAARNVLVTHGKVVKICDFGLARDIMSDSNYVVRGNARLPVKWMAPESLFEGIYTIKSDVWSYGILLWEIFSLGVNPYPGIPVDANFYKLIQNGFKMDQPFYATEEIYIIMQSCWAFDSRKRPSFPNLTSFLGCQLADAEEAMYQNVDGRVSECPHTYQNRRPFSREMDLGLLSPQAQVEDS

The term inhibition denotes the relative decrease from the control value, in per cent. Regarding `O=C(Nc1ccccc1)c1n[nH]c2ccccc12`, the inhibition in [1] worked out at 53.6%; in test [2], 4.6%; in test [3] it was 17%; in test [4] it was 2.4%; in test [5] it was 10.6%; in test [6], 96.7%. For the same molecule, the inhibition was -2.1% in [7]; 5.1% in test [8]; -0.5% in [9]; 51% in [10]; 0.8% in test [11]; 6.9% in test [12].

Regarding `O=C(Nc1ccc(C(=O)N2CCN(c3ccccc3)CC2)cc1)c1n[nH]c2ccccc12`, the inhibition was 29.4% in test [1]; -0.6% in test [2]; 6.3% in test [3]; 10.6% in [4]; 9.3% in test [5]; 99.7% in [6]. The inhibition was 1.9% in test [7]; -7.5% in test [8]; -5% in [9]; 4.9% in test [10]; -1.6% in test [11]; -1.8% in test [12].

As to `O=C(Nc1ccc(CN2CCN(c3ccccc3)CC2)cc1)c1n[nH]c2ccccc12`, the inhibition in test [1] was 12.7%; in test [2], -0.4%; in test [3] it was -1%; in [4] it was -0.9%; in test [5], 3.6%; in [6] it was 100%. Also, the inhibition was -2.8% in test [7]; 9.7% in [8]; -4.3% in [9]; -3.7% in [10]; 0.6% in test [11]; -2.6% in test [12].
